Reference: patent US8937167B2 (Washington University, priority 2009, dated 2015)
Like-named read-outs stand apart in the source and are kept apart here.

Molecular target: FimH (Escherichia coli, UniProt Q1R2J4)
Conditions: for HAI Titer EC>50: Table 21
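Also: hemagglutination inhibition of guinea pig erythrocytes agglutinated by type 1 piliated uropathogenic E. coli via FimH mannose binding, quantified through serial dilutions of compound.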

SMILES	HAI Titer EC>90	other results
OCC1OC(Oc2ccc(-c3ccccc3O)cc2)C(O)C(O)C1O (stereo not shown) [Compound 3ZFH111, 2-(hydroxymethyl)-6-[4-(2-hydroxyphenyl)phenoxy]tetrahydropyran-3,4,5-triol]	8.000 µM	
OCc1ccccc1-c1ccc(OC2OC(CO)C(O)C(O)C2O)cc1 (stereo not shown) [Compound 3ZFH114, 2-(hydroxymethyl)-6-[4-[2-(hydroxymethyl)phenyl]phenoxy]tetrahydropyran-3,4,5-triol]	16.000 µM	
CS(=O)(=O)Nc1ccccc1-c1ccc(OC2OC(CO)C(O)C(O)C2O)cc1 (stereo not shown) [Compound 3ZFH163, N-[2-[4-[3,4,5-trihydroxy-6-(hydroxymethyl)tetrahydropyran-2-yl]oxyphenyl]phenyl]methanesulfonamide]	12.000 µM	
CNS(=O)(=O)c1ccccc1-c1ccc(OC2OC(CO)C(O)C(O)C2O)cc1 (stereo not shown) [Compound 3ZFH176, N-methyl-2-[4-[3,4,5-trihydroxy-6-(hydroxymethyl)tetrahydropyran-2-yl]oxyphenyl]benzenesulfonamide]	4.000 µM	
CNS(=O)(=O)c1cccc(-c2ccc(OC3OC(CO)C(O)C(O)C3O)cc2)c1 (stereo not shown) [Compound 3ZFH179, N-methyl-3-[4-[3,4,5-trihydroxy-6-(hydroxymethyl)tetrahydropyran-2-yl]oxyphenyl]benzenesulfonamide]	1.000 µM	
COc1ccccc1-c1ccc(OC2OC(CO)C(O)C(O)C2O)cc1 (stereo not shown) [Compound 3ZFH188, 2-(hydroxymethyl)-6-[4-(2-methoxyphenyl)phenoxy]tetrahydropyran-3,4,5-triol]	2.000 µM	
COc1cccc(-c2ccc(OC3OC(CO)C(O)C(O)C3O)cc2)c1 (stereo not shown) [Compound 3ZFH190, 2-(hydroxymethyl)-6-[4-(3-methoxyphenyl)phenoxy]tetrahydropyran-3,4,5-triol]	1.500 µM	
COC(=O)c1cc(-c2ccc(OC3OC(CO)C(O)C(O)C3O)cc2)ccn1 [Compound 3ZFH220, methyl 4-[4-(a-D-mannopyranosyloxy)phenyl]pyridine-2-carboxylate]	0.500 µM	
NCCOCCOCCNC(=O)c1cc(-c2ccc(OC3OC(CO)C(O)C(O)C3O)cc2)cc([N+](=O)[O-])c1 (stereo not shown) [Compound 3ZFH245, N-[2-[2-(2-aminoethoxy)ethoxy]ethyl]-3-nitro-5-[4-[3,4,5-trihydroxy-6-(hydroxymethyl)tetrahydropyran-2-yl]oxyphenyl]benzamide]	0.25 µM	
O=C(Nc1ccncc1)c1cccc(-c2ccc(OC3OC(CO)C(O)C(O)C3O)cc2)c1 (stereo not shown) [Compound 3ZFH256, N-(4-pyridyl)-3-[4-[3,4,5-trihydroxy-6-(hydroxymethyl)tetrahydropyran-2-yl]oxyphenyl]benzamide]	0.25 µM	
CN1CCN(C(=O)c2cccc(-c3ccc(OC4OC(CO)C(O)C(O)C4O)cc3)c2)CC1 (stereo not shown) [Compound 3ZFH261, (4-methylpiperazin-1-yl)-[3-[4-[3,4,5-trihydroxy-6-(hydroxymethyl)tetrahydropyran-2-yl]oxyphenyl]phenyl]methanone]	4.000 µM	
O=C(Nc1cccnc1)c1cccc(-c2ccc(OC3OC(CO)C(O)C(O)C3O)cc2)c1 (stereo not shown) [Compound 3ZFH265, N-(3-pyridyl)-3-[4-[3,4,5-trihydroxy-6-(hydroxymethyl)tetrahydropyran-2-yl]oxyphenyl]benzamide]	0.375 µM	
CN(C)C(=NCCNC(=O)c1cccc(-c2ccc(OC3OC(CO)C(O)C(O)C3O)cc2)c1)N(C)C (stereo not shown) [Compound 3ZFH270, N-[2-[bis(dimethylamino)methyleneamino]ethyl]-3-[4-[3,4,5-trihydroxy-6-(hydroxymethyl)tetrahydropyran-2-yl]oxyphenyl]benzamide]	2.000 µM	
O=C(NCCO)c1cccc(-c2ccc(OC3OC(CO)C(O)C(O)C3O)cc2)c1 (stereo not shown) [Compound 3ZFH276, N-(2-hydroxyethyl)-3-[4-[3,4,5-trihydroxy-6-(hydroxymethyl)tetrahydropyran-2-yl]oxyphenyl]benzamide]	0.5000 µM	
NCCNC(=O)c1cccc(-c2ccc(OC3OC(CO)C(O)C(O)C3O)cc2)c1 (stereo not shown) [Compound 3ZFH280, N-(2-aminoethyl)-3-[4-[3,4,5-trihydroxy-6-(hydroxymethyl)tetrahydropyran-2-yl]oxyphenyl]benzamide]	3.000 µM	
O=C(c1cccc(-c2ccc(OC3OC(CO)C(O)C(O)C3O)cc2)c1)N1CCNCC1 (stereo not shown) [Compound 3ZFH284, piperazin-1-yl-[3-[4-[3,4,5-trihydroxy-6-(hydroxymethyl)tetrahydropyran-2-yl]oxyphenyl]phenyl]methanone]	4.0000 µM	
COC(=O)c1cccc(OC2OC(CO)C(O)C(O)C2O)c1 (stereo not shown) [Compound 3j]		fold loss of HA potency (carboxylic acid relative to matched pair methyl ester 3j): 10 fold

SMILES	HAI Titer EC>90	other results
N#Cc1ccccc1OC1OC(CO)C(O)C(O)C1O (stereo not shown) [Compound 3m]		EC50 (read-out: HA 50% Titer, Table 10, Example 6 numbering): 6 µM
COC(=O)c1cccc(-c2ccc(NC3OC(CO)C(O)C(O)C3O)cc2)c1 (stereo not shown) [Compound 4ZFH44, methyl 3-[4-[[3,4,5-trihydroxy-6-(hydroxymethyl)tetrahydropyran-2-yl]amino]phenyl]benzoate]	4.000 µM	
COC(=O)c1cccc(-c2ccc(OC3OC(CO)C(O)C(O)C3O)c(Cl)c2)c1 (stereo not shown) [Compound 4ZFH49, methyl 3-[3-chloro-4-[3,4,5-trihydroxy-6-(hydroxymethyl)tetrahydropyran-2-yl]oxy-phenyl]benzoate]	0.032 µM	
COC(=O)c1sc(-c2ccc(OC3OC(CO)C(O)C(O)C3O)cc2)cc1NC(N)=O (stereo not shown) [Compound 4ZFH52-JJ, methyl 5-[4-[3,4,5-trihydroxy-6-(hydroxymethyl)tetrahydropyran-2-yl]oxyphenyl]-3-ureido-thiophene-2-carboxylate]	0.016 µM	
COC(=O)c1cccc(-c2ccc(SC3OC(CO)C(O)C(O)C3O)cc2)c1 (stereo not shown) [Compound 4ZFH55, methyl 3-[4-[3,4,5-trihydroxy-6-(hydroxymethyl)tetrahydropyran-2-yl]sulfanylphenyl]benzoate]	4.000 µM	
COC(=O)c1cccc(-c2ccc(NC(=O)C3OC(CO)C(O)C(O)C3O)cc2)c1 (stereo not shown) [Compound 4ZFH89, methyl 3-[4-[[3,4,5-trihydroxy-6-(hydroxymethyl)tetrahydropyran-2-carbonyl]amino]phenyl]benzoate]	16.000 µM	
OCC1OC(n2cc(-c3ccccc3)nn2)C(O)C(O)C1O (stereo not shown) [Compound 4ZFH105, 2-(hydroxymethyl)-6-(4-phenyltriazol-1-yl)tetrahydropyran-3,4,5-triol]	32.000 µM	
O=C(NCC1O[C@@H](CO)[C@@H](O)[C@H](O)[C@H]1O)c1ccc(Br)cc1 (stereo partly drawn) [Compound 4ZFH123, 4-bromo-N-[[(3R,4R,5S,6S)-3,4,5-trihydroxy-6-(hydroxymethyl)tetrahydropyran-2-yl]methyl]benzamide]	16.000 µM	HAI Titer EC>50 (ZFH/JWJ codes): 16.000 µM; HAI Titer EC>90 (Table 22, ZFH/JWJ codes): 16.000 µM
COC(=O)c1cccc(-c2ccc(C(=O)NCC3O[C@@H](CO)[C@@H](O)[C@H](O)[C@H]3O)cc2)c1 (stereo partly drawn) [Compound 4ZFH131, methyl 3-[4-[[(3R,4R,5S,6S)-3,4,5-trihydroxy-6-(hydroxymethyl)tetrahydropyran-2-yl]methylcarbamoyl]phenyl]benzoate]	16.000 µM	HAI Titer EC>50 (ZFH/JWJ codes): 16.000 µM; HAI Titer EC>90 (Table 22, ZFH/JWJ codes): 16.000 µM
COC(=O)c1cccc(-c2ccc(OC3O[C@@H](CO)[C@@H](O)[C@H](O)[C@H]3O)c(F)c2)c1 (stereo partly drawn) [Compound 4ZFH220, methyl 3-[3-fluoro-4-[(3R,4S,5S,6S)-3,4,5-trihydroxy-6-(hydroxymethyl)tetrahydropyran-2-yl]oxy-phenyl]benzoate]	0.750 µM	HAI Titer EC>50 (ZFH/JWJ codes): 0.750 µM; HAI Titer EC>90 (Table 22, ZFH/JWJ codes): 0.750 µM
OC[C@@H]1OC(Oc2ccc(-c3ccc4ncncc4c3)cc2)[C@H](O)[C@@H](O)[C@@H]1O (stereo partly drawn) [Compound 4ZFH247, (2S,3S,4S,5R)-2-(hydroxymethyl)-6-(4-quinazolin-6-ylphenoxy)tetrahydropyran-3,4,5-triol]	0.375 µM	HAI Titer EC>50 (ZFH/JWJ codes): 0.375 µM; HAI Titer EC>90 (Table 22, ZFH/JWJ codes): 0.375 µM
OC[C@@H]1OC(Oc2ccc(-c3ccc4ccncc4c3)cc2)[C@H](O)[C@@H](O)[C@@H]1O (stereo partly drawn) [Compound 4ZFH275, (2S,3S,4S,5R)-2-(hydroxymethyl)-6-[4-(7-isoquinolyl)phenoxy]tetrahydropyran-3,4,5-triol]	0.750 µM	HAI Titer EC>50 (ZFH/JWJ codes): 0.750 µM; HAI Titer EC>90 (Table 22, ZFH/JWJ codes): 0.750 µM
CC(=O)Nc1ccc(-c2ccc(OC3OC(CO)C(O)C(O)C3O)cc2)cc1 (stereo not shown) [Compound 4ZFH277]		HAI Titer EC>50 (ZFH/JWJ codes): 1.000 µM
CNC(=O)c1cc(C(=O)NC)cc(-c2ccc(OC3O[C@@H](CO)[C@@H](O)[C@H](O)[C@H]3O)c(C)c2)c1 (stereo partly drawn) [Compound 4ZFH284, N1,N3-dimethyl-5-[3-methyl-4-[(3R,4S,5S,6S)-3,4,5-trihydroxy-6-(hydroxymethyl)tetrahydropyran-2-yl]oxy-phenyl]benzene-1,3-dicarboxamide]	0.016 µM	HAI Titer EC>50 (ZFH/JWJ codes): 0.016 µM; HAI Titer EC>90 (Table 22, ZFH/JWJ codes): 0.016 µM
NC(=O)Nc1csc(-c2ccc(OC3OC(CO)C(O)C(O)C3O)cc2)c1 (stereo not shown) [Compound 4ZFH303]		HAI Titer EC>50 (ZFH/JWJ codes): 1.000 µM
CC(=O)Nc1ccc(-c2ccc(OC3OC(CO)C(O)C(O)C3O)cc2)cc1C(=O)O (stereo not shown) [Compound 4ZFH306]		HAI Titer EC>50 (ZFH/JWJ codes): 0.750 µM
COC(=O)c1cc(-c2ccc(OC3OC(CO)C(O)C(O)C3O)cc2)ccc1NC(C)=O (stereo not shown) [Compound 4ZFH308]		HAI Titer EC>50 (ZFH/JWJ codes): 0.250 µM
